Test results taken from PubChem BioAssay AID1329 (NMMLSC, 2008).
The source made the active and inactive calls. How the calls were made is not given here.

The compounds below were run against Induced myeloid leukemia cell differentiation protein Mcl-1 (Homo sapiens) (UniProt Q07820) (assay: Mcl-1/Bim interaction regulators – biochemical, bead-based flow cytometry, multiplexed, human, dose response (AID 1329)). Conditions: Bim peptide-Mcl-1 binding, MCF.
Induced myeloid leukemia cell differentiation protein Mcl-1 (Homo sapiens), sequence (Q07820 whole entry, looked up): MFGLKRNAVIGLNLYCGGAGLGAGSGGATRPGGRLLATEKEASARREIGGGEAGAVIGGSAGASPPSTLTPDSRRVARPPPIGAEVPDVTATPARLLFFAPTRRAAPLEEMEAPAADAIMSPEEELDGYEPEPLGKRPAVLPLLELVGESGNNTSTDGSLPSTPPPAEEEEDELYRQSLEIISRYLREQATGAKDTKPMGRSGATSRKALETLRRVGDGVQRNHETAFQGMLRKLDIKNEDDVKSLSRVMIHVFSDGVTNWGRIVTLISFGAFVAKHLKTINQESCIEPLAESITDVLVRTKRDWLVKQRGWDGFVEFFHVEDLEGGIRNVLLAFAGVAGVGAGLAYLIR
For `Cc1ccc(NC(=S)N2CCn3cccc3C2c2cccnc2)cc1` (stereo unspecified), the percent span was “inactive”. With `COc1ccc(S(=O)(=O)NCCSc2ccc(Cl)cc2)cc1OC` the percent span was “inactive”. For `CCOC(=O)c1cccc(Nc2ncnc3ccccc23)c1`, the percent span was “inactive”. In the case of `COC(=O)c1ccc(-n2nnnc2SCC(=O)Nc2cc(OC)ccc2OC)cc1`, the percent span is reported as “inactive”. In the case of `O=C(N/N=C/c1ccc(-c2ccccc2[N+](=O)[O-])o1)c1cncc(Br)c1`, the percent span is reported as “inactive”. `CN1CCN(c2ccc(N)cc2)CC1` was tested, and the percent span was “inactive”. For `CCOC(=O)c1ccc(NC(=O)CSCCC(=O)O)cc1`, the percent span was “inactive”. For `O=[N+]([O-])c1c(NCCO)cc(Sc2nc3ccccc3s2)c2nonc12`, the percent span was “inactive”. In the case of `CN(Cc1ccccc1)C(=O)c1[nH]cnc1C(=O)N[C@@H](CCCCNC(=O)OC(C)(C)C)C(=O)OC(C)(C)C`, the percent span is reported as “inactive”. For `CC(NC(=O)Nc1ccccn1)N1C(=O)C2C3C=CC(C3)C2C1=O` (stereo unspecified), the percent span was “inactive”. In the case of `Cc1ccc(-c2cc(C(=O)Nc3cc(C(=O)O)ccc3C)c3ccccc3n2)cc1`, the percent span is reported as “inactive”. With `COC(=O)c1c(NC(=O)COc2ncnc3ccccc23)sc(C)c1C` the percent span was “inactive”. With `COc1ccc(NC(=O)c2sccc2SCc2cccc(C(F)(F)F)c2)cc1` the percent span was “inactive”. `Cc1cc(NC(=O)CCCC(=O)NCc2ccccc2)no1` was tested, and the percent span was “inactive”. In the case of `CNc1ccc(Br)cc(C(=O)/C=C/c2cccc(OC)c2OC)c1=O`, the percent span is reported as “inactive”. With `Cc1cc(C)c(S(=O)(=O)/N=C2/C=C(SCC(=O)O)C(=O)c3ccccc32)cc1C` the percent span was “inactive”. `C=CS(=O)(=O)c1sc(Cl)c(N2CCOCC2)c1[N+](=O)[O-]` was tested, and the percent span was “inactive”. With `CC(=O)N1CCN(C(=O)c2ccc(-n3c(C)ccc3C)cc2)CC1` the percent span was “inactive”. For `CCOC(=O)C1=C(Cc2ccc(C)cc2)C(=O)c2ccccc2C1=O`, the percent span was “inactive”. For `CCOC(=O)CSc1nnc(-c2cccc(Cl)c2)n1CC`, the percent span was “inactive”. For `Cc1occc1C(=O)NNC(=S)NCc1ccccc1`, the percent span was “inactive”. `CN=c1scc(-c2cccs2)n1/N=C/c1ccc(O)c(O)c1O` was tested, and the percent span was “inactive”. `Cc1ccc(NN2C(=O)C=CC2=O)cc1` was tested, and the percent span was “inactive”. With `CNC(=S)N/N=C/C1=CCC2CC1C2(C)C` (stereo unspecified) the percent span was “inactive”. In the case of `O=C(NCCc1ccccc1)c1ccc2nc(-c3ccco3)c(-c3ccco3)nc2c1`, the percent span is reported as “inactive”. In the case of `CC(/C=C/C(=O)c1ccc(C)cc1)=C\c1ccccc1`, the percent span is reported as “inactive”. `Cc1cc(-c2csc(N)n2)c(C)n1CCc1ccccc1` was tested, and the percent span was “inactive”. In the case of `O=C(CSc1nnc(Cc2ccccc2)o1)NCc1ccco1`, the percent span is reported as “inactive”. In the case of `O=C1C=C(Nc2ccccc2)C(=O)c2ccccc21`, the percent span is reported as “inactive”. In the case of `COc1ccc(N2C(=O)/C(=C/c3cccs3)NC2=S)cc1`, the percent span is reported as “inactive”. `CCOc1ccc(N2C(=O)C(Cl)=C(Nc3ccccc3O)C2=O)cc1` was tested, and the percent span was “inactive”. For `COc1cc(CNc2ccc(N3CCCC3)cc2)cc(Cl)c1OC`, the percent span was “inactive”. In the case of `Brc1ccc2ncnc(Nc3ccc(N4CCOCC4)cc3)c2c1`, the percent span is reported as “inactive”. With `COc1cc(N=c2ssnc2Cl)cc(OC)c1` the percent span was “inactive”. With `Cn1c(=O)[nH]c(=O)c2c1nc(N1CCOCC1)n2CCSc1nc2ccccc2[nH]1` the percent span was “inactive”. For `OCCN1CCN(CCCc2c3c(cc4c2CCC4)CCC3)CC1`, the percent span was “inactive”. `O=C1C(=O)c2ccc(-c3ccccc3)cc2-c2ccccc21` was tested, and the percent span was “inactive”. For `COc1ccc2c3c(cccc13)N(C)N=C2C`, the percent span was “inactive”. In the case of `CCOc1ccccc1-n1c(=O)c2ccccc2c2ccccc2c1=O`, the percent span is reported as “inactive”. With `CNC(=O)c1sc(-c2ccccn2)nc1C` the percent span was “inactive”. `Cc1ccc(Nc2nc(C)cs2)cc1` was tested, and the percent span was “inactive”. In the case of `O=C1NC(=O)C2(Cc3c(nc4ccccn4c3=O)N3CCCCCC32)C(=O)N1Cc1ccccc1` (stereo unspecified), the percent span is reported as “inactive”. For `O=C(Cc1ccccc1)N/N=C/c1cccn1-c1ccc([N+](=O)[O-])cc1`, the percent span was “inactive”. With `CCOc1cc(NC(=S)NC)c(OCC)cc1NC(=O)c1ccc(OC)cc1` the percent span was “inactive”. For `COc1ccc2oc(-c3ccccc3)c(C(=O)N3CCOCC3)c2c1`, the percent span was “inactive”. In the case of `CCc1nn2cc(C(=O)c3cc(C)ccc3O)cnc2c1-c1ccc(F)cc1`, the percent span is reported as “inactive”. `O=C(c1cc2ccccc2oc1=O)N(c1ccccc1)C1C=CS(=O)(=O)C1` (stereo unspecified) was tested, and the percent span was “inactive”. `CCOC(=O)c1cc2c(=O)n3cccc(C)c3nc2n(Cc2ccco2)c1=NC(=O)c1ccccc1` was tested, and the percent span was “inactive”. In the case of `COc1cc(CNc2ccc3[nH]c(=O)[nH]c3c2)cc(Br)c1OCC(=O)NC(C)(C)C`, the percent span is reported as “inactive”. With `CCOC(=O)c1sc(NC(=O)c2ccncc2)c(C#N)c1C` the percent span was “inactive”. In the case of `CC1(C(=O)N(CC(=O)NC2CCCC2)Cc2ccco2)CC(=O)N=C2C=CC=CN21` (stereo unspecified), the percent span is reported as “inactive”. With `C=CCN1C(=O)/C(=C/c2ccsc2)SC1=S` the percent span was “inactive”. `COc1cc(/C=C2/NC(=O)N(Cc3ccccc3F)C2=O)cc(OC)c1O` was tested, and the percent span was “inactive”. `CCOc1cccc(CNc2ccc(O)cc2)c1OCc1ccc(Cl)cc1` was tested, and the percent span was “inactive”. For `Cc1ccc(-n2nc(C)c(C(=O)O)n2)c(C)c1`, the percent span was “inactive”. For `COc1ccc2nc(-c3ccco3)c(-c3ccco3)nc2c1`, the percent span was “inactive”. In the case of `COc1ccc(C2=Nc3cccc4cccc(c34)N2)cc1`, the percent span is reported as “inactive”. With `Cc1cc(C)c[n+](-c2nc3ccccc3nc2C(=C=[N-])C#N)c1` the percent span was “inactive”. For `CC1Nc2ccccc2C(=O)N1NS(=O)(=O)c1ccccc1` (stereo unspecified), the percent span was “inactive”. For `COc1ccc(NC(=O)c2ccco2)cc1NC(=O)c1ccco1`, the percent span was “inactive”. In the case of `COC(=O)c1cccc(-n2c(C)cc(C=O)c2C)c1`, the percent span is reported as “inactive”. `FC(F)(F)c1ccc2c(c1)C1C=CCC1C(c1ccncc1)N2` (stereo unspecified) was tested, and the percent span was “inactive”. In the case of `O=C1c2ccccc2C(=O)N1CN(C(=O)COc1ccc(Cl)cc1Cl)c1cccc(F)c1`, the percent span is reported as “inactive”. With `C/C(=N\NC(=O)COc1ccc(C(C)(C)C)cc1)c1ccc2c(c1)OCCO2` the percent span was “inactive”. `CCOc1cc(/C=C2/N=C(C)C(C(=O)OC)=C2O)ccc1O` was tested, and the percent span was “inactive”. For `CSc1nnc2c3cc(C)ccc3n(Cc3ccccc3)c2n1`, the percent span was “inactive”. For `COC(=O)CSc1nccc(-c2cccs2)n1`, the percent span was “inactive”. For `Cc1[nH]n(C(N)=S)c(=O)c1N=Nc1ccc(S(=O)(=O)N2CCCCCC2)cc1`, the percent span was “inactive”. With `Cc1ccc(-n2c(CSc3nc(C)cc(C)n3)nnc2SCC(=O)NCc2ccco2)cc1` the percent span was “inactive”. `Cc1cccc(N2C(S)=C(C#N)C(=O)NC2c2cccs2)c1` (stereo unspecified) was tested, and the percent span was “inactive”. In the case of `O=C(COc1ccccc1)N1CCN(c2ncnc3c2cnn3-c2ccccc2)CC1`, the percent span is reported as “inactive”. In the case of `CC(CCc1ccccc1)NC(=O)C1CCN(S(=O)(=O)N2CCCCC2)CC1` (stereo unspecified), the percent span is reported as “inactive”. `CNC(=O)/C(C#N)=C/c1c(N(Cc2ccccc2)Cc2ccccc2)nc2c(C)cccn2c1=O` was tested, and the percent span was “inactive”. With `Clc1nssc1=Nc1ccccc1` the percent span was “inactive”. With `Cc1cc(NC(=O)CCCC(=O)N(CC(=O)NC2CCCCC2)c2ccccc2)no1` the percent span was “inactive”. `Cc1cc(Cl)c(S(=O)(=O)NCC2CCCO2)cc1OCC(N)=O` (stereo unspecified) was tested, and the percent span was “inactive”. With `Cc1ccc(-c2cc(C(=O)Nc3cccnc3)c3ccccc3n2)o1` the percent span was “inactive”. With `COc1cc(C2Nc3cccc4cccc(c34)N2)ccc1OC(C)=O` the percent span was “inactive”. `O=C(COCC(=O)NCc1ccccc1)NCc1ccccc1` was tested, and the percent span was “inactive”. `O=C(c1cc(=O)c2ccccc2o1)N1CCN(c2ccccc2F)CC1` was tested, and the percent span was “inactive”. With `N=C1C(c2nc3ccccc3s2)=C(O)CN1Cc1ccccc1` the percent span was “inactive”. With `CCNCc1cc(Br)c(OCC(=O)Nc2ccccc2)c(OC)c1` the percent span was “inactive”. `CC1(C)CC(NC(=O)COc2ccc([N+](=O)[O-])cc2)CC(C)(C)N1` was tested, and the percent span was “inactive”. With `CN(CCO)c1cc(Sc2nc3ccccc3s2)c2nonc2c1[N+](=O)[O-]` the percent span was “inactive”. In the case of `CCc1nnc(NS(=O)(=O)c2ccc(N=CC3=C(O)CC(C)(C)CC3=O)cc2)s1`, the percent span is reported as “inactive”. In the case of `COc1ccc(NC(=O)C2=C(C)NC(=O)NC2c2cccc(OC)c2OC)c(OC)c1` (stereo unspecified), the percent span is reported as “inactive”. For `COc1ccc(N2C(=O)C(Cl)=C(Oc3cccc(OC)c3)C2=O)cc1`, the percent span was “inactive”. For `O=C(Nc1ccc(N2CCOCC2)cc1)Nc1ccc2nc(-c3ccco3)c(-c3ccco3)nc2c1`, the percent span was “inactive”. In the case of `Cc1cc(C)c2c(N)c3cccc(C)c3nc2n1`, the percent span is reported as “inactive”. For `O=[N+]([O-])c1ccc2[nH]nc(-c3ccccc3)c2c1`, the percent span was “inactive”. `O=C(C1=NN(c2ccccc2)C2C(=O)N(c3ccccc3)C(=O)C12)c1ccccc1` (stereo unspecified) was tested, and the percent span was “inactive”. For `CCOc1c(Cl)cc(CNc2ccc(N3CCCC3)cc2)cc1OC`, the percent span was “inactive”. With `Nc1ccccc1N=c1ssnc1Cl` the percent span was “inactive”. With `COC(=O)c1sc(NC(=O)c2ccc(Cn3cc(Cl)cn3)o2)c(C#N)c1C` the percent span was “inactive”. With `O=C(Nc1ccccc1N1CCOCC1)c1cccs1` the percent span was “inactive”. For `CC(C)CN1C(=O)/C(=C/c2ccco2)NC1=S`, the percent span was “inactive”. In the case of `CN1CCc2cccc3c2[C@H]1Cc1ccc(O)c(O)c1-3`, the percent span is reported as “inactive”. For `CCOC(=O)CCCNC(=O)c1cncc(O)c1`, the percent span was “inactive”. With `Cc1ccc(-n2[nH]c(C)c(/C=N/Nc3ccc([N+](=O)[O-])cc3[N+](=O)[O-])c2=O)cc1C` the percent span was “inactive”. With `CNc1ccc(Br)cc(C(=O)/C=C/c2ccc(OC)cc2)c1=O` the percent span was “inactive”. With `COc1ccc(-n2c(SCC(=O)Nc3ccc(C(=O)O)cc3)nnc2-c2cccs2)cc1` the percent span was “inactive”. In the case of `CNc1nc2ccccc2n1/N=C/c1cccc(OC)c1OC`, the percent span is reported as “inactive”. In the case of `CN1/C(=C\C(=O)Nc2ccc(Cl)cc2)C(C)(C)c2ccccc21`, the percent span is reported as “inactive”. With `COC(=O)Cc1cc(=O)[nH]c(Nc2nc3ccccc3o2)n1` the percent span was “inactive”. With `Fc1ccc(C2=Nn3c(Cc4ccccc4F)nnc3SC2)cc1` the percent span was “inactive”. In the case of `Cc1nonc1NC(=O)CSc1nnc(-c2ccoc2C)n1C`, the percent span is reported as “inactive”.
